Test in all cases: NCI tumour cell line growth inhibition, 48 h
Assay [1] relates to LOX IMVI melanoma.
In assay [2] the test system is A549 NSCLC.
Assay [3] has as its system HOP-18 NSCLC.
In assay [4] the test system is DLD-1 colon.
In assay [5] the test system is SF-539 CNS.
Assay [6] relates to UO-31 renal.
The test system of assay [7] is HCC-2998 colon.
Assay [8] relates to HCT-15 colon.

Drawing on PubChem BioAssay (NCI), this text covers GI50 and TGI for twelve compounds.

Structures are written as SMILES. “And” between values parts separate entries of the source, which are not always exact repeats. Equal values may be shown once.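 Step 1: Grow cells in 96-well plates. Step 2: Expose to compound for 48 hours at 5 concentrations. Step 3: Interpolate endpoints linearly; if unreached, use highest concentration. Abbreviation: GI50, concentration required for 50% inhibition of growth. TGI: concentration producing complete growth inhibition.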

With `C[CH2][Sn]([CH2]C)([O]C(=O)c1ccc(F)cc1)[O][Sn]([CH2]C)([CH2]C)[O]C(=O)c1ccc(F)cc1`, the GI50 is 37.4 µM in assay [1]; greater than 100 µM in assay [2]; greater than 100 µM in assay [3]; 23.6 µM in assay [4]; 67.5 µM in assay [5]; greater than 100 µM in assay [6]. For the same compound, the GI50 in assay [7] and in assay [8] was greater than 100 µM throughout. Further, the TGI in assay [1], in assay [2], in assay [3], in assay [4], in assay [5] and in assay [6] was greater than 100 µM throughout. In addition, the TGI in assay [7] and in assay [8] was greater than 100 µM each time.

`COC(C)(C)[C@H](O)C(O)CC(C)[C@@H]1CCC23CC12CCC1[C@@]2(C)CCC(OC(C)=O)C(C)(C)C2CC(OC2OC(COC(C)=O)C(O)C(O)C2O)[C@]13C` (stereo not given in full): the GI50 in assay [1] is 4.04 µM; in assay [2], 3.67 µM; in assay [3], 4.15 µM; in assay [4], 3.13 µM; in assay [5], 5.66 µM; in assay [8], 6.86 µM. Besides, the TGI in assay [1] is 9.97 µM and 15.9 µM; in assay [2], 10.1 µM and 13.8 µM; in assay [3], 19.7 µM and 13.3 µM; in assay [4], 6.29 µM and 9.73 µM; in assay [5], 9.41 µM and 17.2 µM; in assay [6], 14.5 µM and 18.6 µM. The TGI is 4.94 µM in assay [7]; 6.28 µM and 19.8 µM in assay [8].

As to `Cn1nc2ccccc2cc1=O`, the TGI in assay [1], in assay [2], in assay [3], in assay [4], in assay [5] and in assay [6] was greater than 100 µM throughout. Besides, the TGI in assay [7] and in assay [8] was greater than 100 µM throughout.

Consider `CCCCCCCCCCCCC(CCCCCCCCCCCC)OP(=O)(O)O`, for which the TGI in assay [1], in assay [2], in assay [3], in assay [4], in assay [5] and in assay [6] was greater than 100 µM throughout. Further, the TGI in assay [7] and in assay [8] was greater than 100 µM in each case.

Regarding `Cc1ccc(NC(=O)CC2C(=O)Nc3ccccc3S2=O)c(C)c1` (stereo not given), the TGI in assay [1] was greater than 87.7 µM; in assay [2], 64.8 µM; in assay [3], 67.4 µM; in assay [4], greater than 76.5 µM; in assay [5], 26.3 µM; in assay [6], 45.3 µM. For the same compound, the TGI in assay [7] is greater than 72.6 µM; in assay [8], 25.4 µM.

As for `Cn1sc2ccccc2c1=S`, the TGI was determined as 4.5 µM in assay [1]; 28.8 µM in assay [2]; 28.4 µM in assay [3]; 10.1 µM in assay [4]; 16.4 µM in assay [5]; 28.7 µM in assay [6]. Moreover, the TGI in assay [7] stood at 45.9 µM; in assay [8] it was 17.3 µM.

As to `O=C(O)[C@@H](NS(=O)(=O)c1ccc([N+](=O)[O-])cc1)c1ccccc1`, the TGI in assay [1], in assay [2], in assay [3], in assay [4], in assay [5] and in assay [6] was greater than 100 µM each time. The TGI in assay [7] and in assay [8] was greater than 100 µM each time.

Turning to `CCOC(=O)NC1CC2CCC1(OC)C=C2C` (stereo not given), the TGI in assay [1], in assay [2], in assay [3], in assay [4], in assay [5] and in assay [6] was greater than 100 µM throughout. The TGI in assay [7] and in assay [8] was greater than 100 µM each time.

Consider `FC(F)(F)c1nc(-c2ccccc2)oc1Sc1oc(-c2ccccc2)nc1C(F)(F)F`, for which the TGI in assay [1], in assay [2], in assay [3], in assay [4], in assay [5] and in assay [6] was greater than 100 µM each time. In addition, the TGI in assay [7] and in assay [8] was greater than 100 µM each time.

For `Cc1ccccc1NC(=O)c1ccc([N+](=O)[O-])cc1`, the TGI in assay [1], in assay [2], in assay [3], in assay [4], in assay [5] and in assay [6] was greater than 100 µM throughout. In addition, the TGI in assay [7] and in assay [8] was greater than 100 µM in each case.

For the compound `COC1CC(OC)C(O)C(CO)O1` (stereo not given), the TGI in assay [1], in assay [2], in assay [3], in assay [4], in assay [5] and in assay [6] was greater than 100 µM throughout. Further, the TGI in assay [7] and in assay [8] was greater than 100 µM each time.

As for `COC(=O)C1=C(C)N(NC(N)=O)C(C)(O)C12CCOC2=O` (stereo not given), the TGI in assay [1], in assay [2], in assay [3], in assay [4], in assay [5] and in assay [6] was greater than 100 µM in each case. For the same compound, the TGI in assay [7] is 45.1 µM; in assay [8], greater than 100 µM.
